Source: patent US10829427B2, “Naphthoquinones, pro-drugs, and methods of use thereof” (The Board of Regents of the University of Texas System, priority 2015, dated 2020)
Read-outs that look alike come from different tables or passages of the source.

Experiments:
[1] = tested on: subcutaneous MiaPaca-2 model; test: In vivo anti-tumor efficacy, nude mice bearing subcutaneous MiaPaca-2 model; set-up: species or system Athymic Nu/Nu nude female mice; conditions: subcutaneous MiaPaca-2 tumor model, FIG. 8
Protocol: Survival and Antitumor Efficacies. 6- to 8-week-old NOD-SCID female mice were tail-vein administrated with luciferase gene-transfected A549 cells (1.0×106), and randomized into groups (n=7-13/group), monitored for tumor formation in the lungs using bioluminescence (BLI) following treatment with vehicle, β-lap-HPβCD, or NQ-059-HPβCD. An average of 1.0×10^7 total photons was used before any therapies were given as described (Huang, et al., 2012). Animals were treated with vehicle, β-lap-HPβCD (20 mg/kg), or NQ-059-HPβCD (15 and 12 mg/kg) via tail vein and repeated five times every 3 days. Tumor-bearing mice were imaged using BLI to estimate relative tumor volumes as described (Ma, et al., 2015) using D-luciferin (Promega, 2.5 mg, subcutaneously injected). Relative tumor volume estimates were derived from BLI images of mice captured using a Xenogen Vivovision IVIS Lumina Imager (60 s exposure time). Animals were monitored daily for survival and morbidity. Mortality was recorded over times as a result of cancer-related deaths or drug-related toxicities (≥20% body weight loss relative to the start of therapy). Athymic Nu/Nu nude female mice (18-20 grams) were commercially obtained (Harlan). […] Tumors were measured at indicated times with digital calipers (Fisher Scientific), and tumor volumes calculated (length×width^2×0.5). […]

red blood cells = test: Methemoglobinemia assay; conditions: formulated with cyclodextran 1:30; relative to a blank cyclodextran or a DMSO vehicle, FIG. 10
Protocol: Methemoglobinemia assay. Collected red blood cells were suspended in 96 well plates or single wells, then were treated with drug for certain time at 37° C. Immediately after the treatment completed, the cells were sit in ice-bath and lysed with 5% Triton X-100. The clear solution afforded were tested with UV-vis at 630 nm, and then were treated with […] K3FeCN6 for 1 min. The yellow solution afforded was tested again at 630 nm.

Mia PaCa-2 cells = test: ATP assay (ATP depletion / cell viability) in Mia PaCa-2 cells; assay type: cell-based, human; conditions: for IC50: read-out: Inhibition of cell viability of ATP assay IC50; for IC50/IC50 (β-lapachone/Compoud): Relative activity compare with β-lapachone in ATP depletion of Mia PaCa-2 cells
Protocol: (§1) In vitro anti-cancer activity of the compound were performed using ATP Assay Kit (Abcam, ab83355) to initially screen, and further performed using 7-day DNA assay.
(§2) Cell culture: endogenous NQO1 overexpressing human MIA PaCa-2 pancreactic and A549 NSCLC cancer cells were obtained (Bey, et al., 2007; Li, et al., 2011). Cancer cells were grown in DMEM with 5% FBS and Mycoplasma free, and cultured at 37° C. in a 5% CO2 95% air humidified atmosphere.
ATP assay: Cells were seeded into each well of a 96-well plate (15000 cells/well) 18 hours ahead of experiment. After aspiration of the media from each well, 100 μl drug-contained media was added instead, and further incubated for 2 hours. After incubation, 100 μl ATP assay kit mixture was added into every well. Following further shaking for 10 minutes with light proof, the data were collected by reading luminescence integrate 1 second per well.

orthotopic A549 model = test: In vivo anti-tumor efficacy, NOD-SCID mice bearing orthotopic A549 model; conditions: for Survival relative to vehicle: orthotopic A549, FIG. 7C
Protocol: Formulation. β-lap-HPβCD formulation was prepared according to our previous report.^14 NQ-059 and HPβCD (1:45, w/w) were dissolved in EtOH, and then concentrated in vacuo to form a thin film or a sponge-like film. PBS was added, and a clear solution was formed with shaking. Immediately filtration through a Ø 0.45 µm filter (Whatman), a stable solution was afforded, whose concentration was quantified by UV-vis at 256 nm.
Survival and Antitumor Efficacies. 6- to 8-week-old NOD-SCID female mice were tail-vein administrated with luciferase gene-transfected A549 cells (1.0×106), and randomized into groups (n=7-13/group), monitored for tumor formation in the lungs using bioluminescence (BLI) following treatment with vehicle, β-lap-HPβCD, or NQ-059-HPβCD. An average of 1.0×10^7 total photons was used before any therapies were given as described (Huang, et al., 2012). Animals were treated with vehicle, β-lap-HPβCD (20 mg/kg), or NQ-059-HPβCD (15 and 12 mg/kg) via tail vein and repeated five times every 3 days. Tumor-bearing mice were imaged using BLI to estimate relative tumor volumes as described (Ma, et al., 2015) using D-luciferin (Promega, 2.5 mg, subcutaneously injected). Relative tumor volume estimates were derived from BLI images of mice captured using a Xenogen Vivovision IVIS Lumina Imager (60 s exposure time). Animals were monitored daily for survival and morbidity. Mortality was recorded over times as a result of cancer-related deaths or drug-related toxicities (≥20% body weight loss relative to the start of therapy). Athymic Nu/Nu nude female mice (18-20 grams) were commercially obtained (Harlan). Human xenografts were generated by injecting 2×10^6 MiaPaca-2 cells subcutaneously in PBS/Matrigel into 6-week-old mice. Tumors were measured at indicated times with digital calipers (Fisher Scientific), and tumor volumes calculated (length×width^2×0.5). Treatments were initiated when subcutaneous tumors reached an average size of >100 mm (Cao, et al., 2003).

MiaPaca 2 = test: Relative survival DNA assay, MiaPaca 2, with or without dicoumarol; assay type: cell-based, human; conditions: for IC50: read-out: Inhibition of cell survival of DNA assay IC50
Protocol: (§3) Cell Lines and Culture. Endogenous NQO1 overexpressing human MiaPaca-2 (pancreatic carcinoma), A549 (None-small cell lung carcinoma), and MCF-7 (breast adenocarcinoma) were obtained (Bey, et al., 2007; Li, et al., 2011). All cell lines were grown in DMEM (Life Technologies) containing 5%-10% FBS (Fisher Scientific) in a 5% CO2 and 95% air incubator at 37° C.
(§4) Relative Survival Assays. Relative survival was assessed by DNA content and colony forming assays as described (Dong, et al., 2010). Briefly, for DNA content, cells were seeded at 1×10^4 per well in 48-well plates and allowed to attach overnight. Cells were then mock treated or treated with various doses of naphthaquinones (for 2 hours) in the presence or absence of dicoumarol as indicated. Drug-free medium was then added and cells were allowed to grow for 5 to 7 days until control cells reached ˜100% confluence. DNA content was then determined by Hoechst 33258 staining and fluorescence detection using a plate reader (Perkin-Elmer).

MCF-7 = test: Relative survival DNA assay, MCF-7, with or without dicoumarol; assay type: cell-based, human; conditions: for IC50: read-out: Inhibition of cell survival of DNA assay IC50
Protocol: as §3, §4

H596 = test: Relative survival DNA assay, H596 (low NQO1 expression); assay type: cell-based; conditions: for IC50: H596 (low NQO1 expression), Vehicle, read-out: Inhibition of cell survival of DNA assay IC50
Protocol: as §4

A549 = test: Relative survival DNA assay, A549, with or without dicoumarol; assay type: cell-based, human; conditions: for IC50: read-out: Inhibition of cell survival of DNA assay IC50
Protocol: as §3, §4

blood = test: Hemolysis assay; conditions: formulated with cyclodextran 1:30; relative to a blank cyclodextran or a DMSO vehicle, FIG. 9
Description: Hemolysis assay. Hemolysis was quantified and modified according to method previously described (Blanco, et al., 2010). Briefly, after treatment with the blood, the plasma was separated and tested with UV-Vis at 576 nm, and hemolysis was quantified comparing treatment group and control group.

A549 cells = test: Cell viability in A549 cells (7-day DNA assay); assay type: cell-based, human; conditions: relative to β-lapachone
Protocol: as §1, §2
DNA assay: Cells were seeded into each well of a 48-well plate (10000 cells/well) 24 hours ahead of experiment. After aspiration of the media from each well, 500 μl drug-contained media was added instead, and further incubated for 2 hours. Drugs were then removed, control growth medium was added, and cells were allowed to grow for an additional 7 days. Drugs were added to medium at a 1:1000 dilution immediately before administration to cells. DNA content (a measure of cell growth) was determined by fluoresence of the DNA dye Hoescht 33258 (Sigma), and read in a Cytofluor fluoresence plate reader. Data were expressed as relative growth with 6 repetitions.

Structure (SMILES): CC(=O)Nc1cccc2c1C(=O)C(=O)C=C2OC(C)C [Compound 24, N-(5-isopropoxy-7,8-dioxo-7,8-dihydronaphthalen-1-yl)acetamide]
- Tumor volume relative to the vehicle [1]: statistically significant improvement
- Methemoglobinemia (red blood cells): reduced toxicity
- Fold (IC50 β-lap/IC50 NQ-059) (Mia PaCa-2 cells; ATP assay, MiaPac-2, Vehicle): 2.9
- IC50 (Mia PaCa-2 cells; Homo sapiens, MIA PaCa-2, MiaPac-2, Vehicle): 0.97 µM
- IC50/IC50 (β-lapachone/Compoud) (Mia PaCa-2 cells): >3
- Tumor growth via bioluminescence imaging (orthotopic A549 model; after 74 days, 12 mg/kg): some growth
- Tumor growth via bioluminescence imaging (orthotopic A549 model; after day 44, 12 mg/kg): Neither 12 mg/kg or 15 mg/kg NQ-059 showed any tumor growth
- Tumor growth via bioluminescence imaging (orthotopic A549 model; after day 44, 15 mg/kg): Neither 12 mg/kg or 15 mg/kg NQ-059 showed any tumor growth
- Tumor volume relative to vehicle (orthotopic A549 model; orthotopic A549, FIG. 7B): significantly improved over the vehicle
- Survival relative to vehicle (orthotopic A549 model): significantly improved over the vehicle
- Fold (IC50 β-lap/IC50 NQ-059) (MiaPaca 2; DNA assay, MiaPaca 2, Vehicle): 4.9
- IC50 (MiaPaca 2; Homo sapiens, MIA PaCa-2, MiaPaca 2, Dic (dicoumarol, NQO1 inhibitor)): > 10 µM
- IC50 (MiaPaca 2; Homo sapiens, MIA PaCa-2, MiaPaca 2, Vehicle): 0.88 µM
- Activity relative to β-lapachone on the same plate (MiaPaca 2; MiaPac2, FIG. 5A): increased activity
- DNA amount in survival assay relative to β-lapachone (MiaPaca 2; MiaPaca 2, FIGS. 4A-4C): decreased DNA amounts at lower concentrations relative to β-lapachone
- Fold (IC50 β-lap/IC50 NQ-059) (MCF-7; DNA assay, MCF-7, Vehicle): 2.2
- IC50 (MCF-7; Homo sapiens, MCF7, MCF-7, Dic (dicoumarol, NQO1 inhibitor)): > 10 µM
- IC50 (MCF-7; Homo sapiens, MCF7, MCF-7, Vehicle): 0.95 µM
- DNA amount in survival assay relative to β-lapachone (MCF-7; MCF-7, FIGS. 4D-4F): decreased DNA amounts at lower concentrations relative to β-lapachone
- DNA amount in survival assay (H596; H596, FIG. 4J): lowest amount of DNA at the lowest concentration
- IC50 (H596; Homo sapiens, NCI-H596): > 10 µM
- Activity relative to β-lapachone on the same plate (A549; A549, FIG. 5B): increased activity
- DNA amount in survival assay relative to β-lapachone (A549; A549, FIGS. 4G-4I): decreased DNA amounts at lower concentrations relative to β-lapachone
- Fold (IC50 β-lap/IC50 NQ-059) (A549; DNA assay, A549, Vehicle): 3.9
- IC50 (A549; Homo sapiens, A549, A549, Dic (dicoumarol, NQO1 inhibitor)): > 10 µM
- IC50 (A549; Homo sapiens, A549, A549, Vehicle): 1.25 µM
- Hemolysis (blood): reduced toxicity
- IC50/IC50 (β-lapachone/Compoud) (A549 cells): >3

Structure (SMILES): CC(C)OC1=CC(=O)C(=O)c2cc(Cl)ccc21 [Compound 4, 7-chloro-4-isopropoxynaphthalene-1,2-dione]
- IC50/IC50 (β-lapachone/Compoud) (Mia PaCa-2 cells): 1~2
- IC50/IC50 (β-lapachone/Compoud) (A549 cells): 1~2

Structure (SMILES): CC1(C)CCC2=C(O1)c1ccccc1C(=O)C2=O [β-lapachone, reference compound]
- Tumor volume relative to the vehicle [1]: did not
- IC50 (Mia PaCa-2 cells; MiaPac-2, Vehicle): 2.79 µM
- Tumor growth via bioluminescence imaging (orthotopic A549 model; after 74 days, β-lap-HPβCD 20 mg/kg): some tumor growth
- Tumor growth via bioluminescence imaging (orthotopic A549 model; after day 44, β-lap-HPβCD 20 mg/kg): some minor tumor growth
- Survival relative to vehicle (orthotopic A549 model): small improvement over vehicle
- IC50 (MiaPaca 2; MiaPaca 2, Dic (dicoumarol, NQO1 inhibitor)): > 10 µM
- IC50 (MiaPaca 2; MiaPaca 2, Vehicle): 4.33 µM
- IC50 (MCF-7; MCF-7, Dic (dicoumarol, NQO1 inhibitor)): 9.02 µM
- IC50 (MCF-7; MCF-7, Vehicle): 2.1 µM
- IC50 (H596): > 10 µM
- IC50 (A549; A549, Dic (dicoumarol, NQO1 inhibitor)): > 10 µM
- IC50 (A549; A549, Vehicle): 4.94 µM

Structure (SMILES): COCCOCCOCCOCCOC1=CC(=O)C(=O)c2c(NC(C)=O)cccc21 [Compound 48, N-(5-(2,5,8,11-tetraoxatridecan-13-yloxy)-7,8-dioxo-7,8-dihydronaphthalen-1-yl)acetamide]
- IC50/IC50 (β-lapachone/Compoud) (Mia PaCa-2 cells): >3
- IC50/IC50 (β-lapachone/Compoud) (A549 cells): >3
